Reference: US20240335452A1, “COMPOSITIONS AND METHODS OF COMBINATION THERAPY FOR TARGETING LYMPHOMA” (Cullgen (Shanghai), Inc., priority 2021, published 2024)

Columns and labels:
[1] = tested on: IKZF1 or IKZF3; conditions: more potent than older IMiDs; stated as 'may be'; cited from earlier work
[2] = tested on: OCI-LY7 cells; test: Cell viability assay (CellTiter-Glo) in OCI-LY7 cells; format: cell-based, human
Experimental: (§1) Experiments were performed in cultured human cells to assess the efficacy of combined EZH2 inhibitor and immunomodulatory drug (e.g., an IMiD) treatment using an EZH2-mutant DLBCL cell line, SU-DHL-10, and an EZH2-wild type line, OCI-LY7. Cells were purchased from Nanjing Cobioer Biotechnology. SU-DHL-10 and OCI-LY7 cells were cultured at 37° C. with 5% CO2 in RPMI 1640 Medium supplemented with 10% fetal bovine serum. Cells were authenticated using the short tandem repeat (STR) assays. Mycoplasma test results were negative.
(§2) The cultured cells were seeded at a density of 5000 cells per well in 96-well assay plates and treated with test compounds at 10 μM followed by a 11-point 3-fold serial dilution or an 8-point 10-fold serial dilution. Cell viability was determined after 5 days, using the CellTiter-Glo assay kit (Promega) according to the manufacturer's instructions. The dose-response curves were determined and IC50 values were calculated using the GraphPad Prism software following a nonlinear regression (least squares fit) method. Each data point in the figure represents the mean values of at least two technical replicates ± standard deviation.
(§3) Cells were treated with EZH2 inhibitors in the presence of IMiDs at concentrations sufficient to induce degradation of IKZF1 and IKZF3 but not enough to kill cells. CC-122 and CC-220 were tested at a concentration of 1 μM; CC-92480 and CFT7455 were tested at a concentration of 1 nM; and CC-99282 was tested at a concentration of 10 nM.

[3] = tested on: SU-DHL-10 cells; test: Cell viability assay (CellTiter-Glo) in SU-DHL-10 cells; format: cell-based, human; conditions: SU-DHL-10, single agent, 5 days
Experimental: as §1, §2, §3

[4] = tested on: SU-DHL-10 cells; test: as above; format: cell-based, human

SMILES	potency with regard to IKZF1 or IKZF3 degradation relative to older IMiDs [1] [fold]	cell viability (sensitivity of the cells to the compound in combination) ([2]; OCI-LY7, in the presence of 100 nM CPI-0209)	cell viability (sensitivity of the cells to the compound in combination) ([2]; OCI-LY7, in the presence of 100 nM SHR2554)	cell viability, response of the cells to the single agent ([2]; OCI-LY7, single agent, 5 days)	cell viability, response of the cells to the single agent [3]	cell viability (sensitivity of the cells to the compound in combination) ([4]; SU-DHL-10, in the presence of 100 nM CPI-0209)	cell viability (sensitivity of the cells to the compound in combination) ([4]; SU-DHL-10, in the presence of 100 nM SHR2554)
N#Cc1ccc(N2CCN(Cc3ccc(COc4cccc5c4CN([C@H]4CCC(=O)NC4=O)C5=O)cc3)CC2)c(F)c1 [CC-92480, mezigdomide]	1000	–	–	–	–	–	–
O=C1CC[C@H](N2C(=O)c3cccc4c(Cc5ccc(CN6CCOCC6)cc5)ccc2c34)C(=O)N1 [CFT7455, (S)-3-(6-(4-(morpholinomethyl)benzyl)-2-oxobenzo[cd]indol-1(2H)-yl)piperidine-2,6-dione]	–	lowered cell viability more than treatment with CFT7455 alone	lowered cell viability more than treatment with CFT7455 alone	moderately responsive	moderately responsive	lowered cell viability more than treatment with CFT7455 alone	lowered cell viability more than treatment with CFT7455 alone
